From the supplement of paper PMC10307832

How the values were obtained:
Assay in all cases: relative viability (nuclei count vs DMSO), 5 days (fraction); higher = more cells survive
[1] = system: NCI-H522
Summary of the method: (§1)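 Medians of duplicate plates are given as relative viability. That measure is the nuclei count in treated wells divided by the count in vehicle wells. Counts were taken on 4× images of lung cancer cell lines in 1536-well plates, 5 days after pin-tool dosing the day after seeding with one drug alone or a fixed anchor-drug dose plus five library-drug doses (not always all listed) in √10 steps.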

[2] = system: BEN
Summary of the method: as §1

[3] = system: HCC-15
Summary of the method: as §1

[4] = system: 201T
Summary of the method: as §1

[5] = system: NCI-H1651
Summary of the method: as §1

[6] = system: NCI-H838
Summary of the method: as §1

[7] = system: NCI-H322M
Summary of the method: as §1

[8] = system: PC-3 [JPC-3]
Summary of the method: as §1

[9] = system: EMC-BAC-2
Summary of the method: as §1

[10] = system: LK-2
Summary of the method: as §1

[11] = system: NCI-H358
Summary of the method: as §1

[12] = system: NCI-H520
Summary of the method: as §1

[13] = system: EKVX
Summary of the method: as §1

[14] = system: COR-L 105
Summary of the method: as §1

[15] = system: LU99A
Summary of the method: as §1

[16] = system: ABC-1
Summary of the method: as §1

[17] = system: NCI-H460
Summary of the method: as §1

[18] = system: SW 900
Summary of the method: as §1

[19] = system: NCI-H727
Summary of the method: as §1

[20] = system: HCC-44
Summary of the method: as §1

[21] = system: NCI-H2023
Summary of the method: as §1

[22] = system: CAL-12T
Summary of the method: as §1

Cc1cn(-c2cc(NC(=O)c3ccc(C)c(Nc4nccc(-c5cccnc5)n4)c3)cc(C(F)(F)F)c2)cn1 [Nilotinib] + O=C(CCCCCCC(=O)Nc1ccccc1)NO [Vorinostat] (partner 1 µM)
relative viability ([1]; first compound 0.01 µM): 1.01 | relative viability ([1]; first compound 0.03162 µM): 0.749 | relative viability ([1]; first compound 0.1 µM): 0.786 | relative viability ([2]; first compound 0.001 µM): 0.532 | relative viability ([2]; first compound 0.003162 µM): 0.556 | relative viability ([2]; first compound 0.01 µM): 0.723 | relative viability ([2]; first compound 0.03162 µM): 0.642 | relative viability ([2]; first compound 0.1 µM): 0.574 | relative viability ([3]; first compound 0.001 µM): 0.791 | relative viability ([3]; first compound 0.003162 µM): 0.913 | relative viability ([3]; first compound 0.01 µM): 0.936 | relative viability ([3]; first compound 0.03162 µM): 0.616 | relative viability ([3]; first compound 0.1 µM): 0.761 | relative viability ([4]; first compound 0.001 µM): 0.931 | relative viability ([4]; first compound 0.003162 µM): 1.19 | relative viability ([4]; first compound 0.01 µM): 1.22 | relative viability ([4]; first compound 0.1 µM): 0.28 | relative viability ([5]; first compound 0.001 µM): 0.531 | relative viability ([5]; first compound 0.003162 µM): 0.612 | relative viability ([5]; first compound 0.01 µM): 0.602 | relative viability ([5]; first compound 0.03162 µM): 0.528 | relative viability ([5]; first compound 0.1 µM): 0.418 | relative viability ([6]; first compound 0.001 µM): 0.693 | relative viability ([6]; first compound 0.003162 µM): 0.783 | relative viability ([6]; first compound 0.01 µM): 0.753 | relative viability ([6]; first compound 0.03162 µM): 0.726 | relative viability ([6]; first compound 0.1 µM): 0.688 | relative viability ([7]; first compound 0.001 µM): 0.896 | relative viability ([7]; first compound 0.003162 µM): 0.68 | relative viability ([7]; first compound 0.01 µM): 0.962 | relative viability ([7]; first compound 0.03162 µM): 0.848 | relative viability ([7]; first compound 0.1 µM): 0.913 | relative viability ([8]; first compound 0.001 µM): 0.792 | relative viability ([8]; first compound 0.01 µM): 0.668 | relative viability ([8]; first compound 0.03162 µM): 0.691 | relative viability ([8]; first compound 0.1 µM): 0.53 | relative viability ([9]; first compound 0.001 µM): 0.369 | relative viability ([9]; first compound 0.003162 µM): 0.339 | relative viability ([9]; first compound 0.01 µM): 0.429 | relative viability ([9]; first compound 0.03162 µM): 0.319 | relative viability ([9]; first compound 0.1 µM): 0.33 | relative viability ([10]; first compound 0.001 µM): 0.261 | relative viability ([10]; first compound 0.003162 µM): 0.23 | relative viability ([10]; first compound 0.01 µM): 0.342 | relative viability ([10]; first compound 0.03162 µM): 0.199 | relative viability ([10]; first compound 0.1 µM): 0.27 | relative viability ([11]; first compound 0.001 µM): 0.601 | relative viability ([11]; first compound 0.003162 µM): 0.747 | relative viability ([11]; first compound 0.01 µM): 0.834 | relative viability ([11]; first compound 0.03162 µM): 0.411 | relative viability ([11]; first compound 0.1 µM): 0.424 | relative viability ([12]; first compound 0.001 µM): 0.584 | relative viability ([12]; first compound 0.003162 µM): 0.79 | relative viability ([12]; first compound 0.01 µM): 0.81 | relative viability ([12]; first compound 0.03162 µM): 0.617 | relative viability ([12]; first compound 0.1 µM): 0.699 | relative viability ([13]; first compound 0.001 µM): 0.65 | relative viability ([13]; first compound 0.003162 µM): 0.879 | relative viability ([13]; first compound 0.01 µM): 0.704 | relative viability ([13]; first compound 0.03162 µM): 0.55 | relative viability ([13]; first compound 0.1 µM): 0.718 | relative viability ([14]; first compound 0.001 µM): 0.744 | relative viability ([14]; first compound 0.003162 µM): 1.09 | relative viability ([14]; first compound 0.01 µM): 0.81 | relative viability ([14]; first compound 0.03162 µM): 0.76 | relative viability ([14]; first compound 0.1 µM): 0.672 | relative viability ([15]; first compound 0.001 µM): 0.429 | relative viability ([15]; first compound 0.003162 µM): 0.506 | relative viability ([15]; first compound 0.01 µM): 0.468 | relative viability ([15]; first compound 0.03162 µM): 0.411 | relative viability ([15]; first compound 0.1 µM): 0.353 | relative viability ([16]; first compound 0.001 µM): 1.07 | relative viability ([16]; first compound 0.003162 µM): 1.03 | relative viability ([16]; first compound 0.01 µM): 1.11 | relative viability ([16]; first compound 0.03162 µM): 1.1 | relative viability ([16]; first compound 0.1 µM): 0.754 | relative viability ([17]; first compound 0.001 µM): 0.428 | relative viability ([17]; first compound 0.003162 µM): 0.996 | relative viability ([17]; first compound 0.01 µM): 1.34 | relative viability ([17]; first compound 0.03162 µM): 0.33 | relative viability ([17]; first compound 0.1 µM): 0.535 | relative viability ([18]; first compound 0.003162 µM): 0.456 | relative viability ([18]; first compound 0.01 µM): 0.624 | relative viability ([18]; first compound 0.03162 µM): 0.216 | relative viability ([18]; first compound 0.1 µM): 0.368 | relative viability ([19]; first compound 0.001 µM): 1.12 | relative viability ([19]; first compound 0.003162 µM): 1.35 | relative viability ([19]; first compound 0.01 µM): 1.16 | relative viability ([19]; first compound 0.03162 µM): 1.15 | relative viability ([19]; first compound 0.1 µM): 1.05 | relative viability ([20]; first compound 0.001 µM): 1.07 | relative viability ([20]; first compound 0.003162 µM): 1.06 | relative viability ([20]; first compound 0.01 µM): 1.09 | relative viability ([20]; first compound 0.1 µM): 1.07 | relative viability ([21]; first compound 0.001 µM): 0.469 | relative viability ([21]; first compound 0.003162 µM): 0.455 | relative viability ([21]; first compound 0.01 µM): 1.06 | relative viability ([21]; first compound 0.03162 µM): 0.41 | relative viability ([21]; first compound 0.1 µM): 0.174 | relative viability ([22]; first compound 0.001 µM): 0.673 | relative viability ([22]; first compound 0.003162 µM): 0.704 | relative viability ([22]; first compound 0.01 µM): 0.994 | relative viability ([22]; first compound 0.03162 µM): 0.573 | relative viability ([22]; first compound 0.1 µM): 0.566
